The results in this text go back to patent US20150196562A1, “FORMULATIONS OF 3-(5-AMINO-2-METHYL-4-OXO-4H-QUINAZOLIN-3-YL)-PIPERIDINE-2,6-DIONE” (Celgene Corporation, priority 2014, published 2015).

SMILES strings stand for the structures.

This data set can be described thus: Degradation of Compound A by hydrolysis. Format: physicochemical. The settings on record: water. An excerpt:
Also provided herein are anhydrous pharmaceutical compositions and dosage forms including an active ingredient, since water can facilitate the degradation of some compounds. For example, the addition of water (e.g., 5 percent) is widely accepted in the pharmaceutical arts as a means of simulating shelf-life, i.e., long-term storage in order to determine characteristics such as shelf-life or the stability of formulations over time. See, e.g., Jens T. Carstensen, Drug Stability: Principles & Practice, 2d. Ed., Marcel Dekker, NY, N.Y., 1995, pp. 379-80. In effect, water and heat accelerate decomposition. Thus, the effect of water on a formulation can be of great significance since moisture and/or humidity are commonly encountered during manufacture, handling, packaging, storage, shipment, and use of formulations.

For `Cc1nc2cccc(N)c2c(=O)n1C1CCC(=O)NC1=O` (stereo not shown) [Compound A, 3-(5-amino-2-methyl-4-oxo-4H-quinazolin-3-yl)-piperidine-2,6-dione], the degradation by hydrolysis result is recorded as “easily degraded by hydrolysis”.
